Here are results for three compounds from US5532240A, “Condensed thiophene compound and pharmaceutical use thereof” (Yoshitomi Pharmaceutical Industries, Ltd., priority 1991, dated 1996).

For orientation: Ki means a measure of affinity in units of concentration, obtained from inhibition or displacement. Lower therefore signals a stronger hold on the target. Broadly, the ED50 is the dose at which the effect has come halfway, by size or by number of responders. Higher therefore signals weaker potency. The term LD50 denotes the dose at which mortality reaches 50%.

“Also recorded” adds a separate entry of the source. Read-outs that look alike come from different tables or passages of the source.

The test system of data set [1] is catalepsy induced by haloperidol. The note with it: preclinical; cited from earlier work.
Data set [2] deals with conditioned avoidance response (CAR). As to conditions: administered with D2 antagonist; cited from earlier work.
Another data set concerns the target T1, dopamine 2 (D2) receptor (Rattus norvegicus, UniProt P61169).
T1 construct: A synaptosome fraction was separated from corpus striatum; from tissue; host or cells: corpus striatum of 9-10 week-old Wistar rats, synaptosome fraction
The data set can be described thus: Affinity for dopamine 2 receptor (tritiated spiperone binding). Also on record: species or system Wistar rats. As to conditions: rat corpus striatum synaptosomes; [3H]spiperone 0.2 nM; 37° C., 20 min. As for the experimental part: Affinity for dopamine 2 receptor
A specific binding of dopamine 2 (D2) receptor was tested according to the method described in Eur. J. Pharmacol. 46, 377 (1977).
A synaptosome fraction was separated from corpus striatum of 9-10 week-old Wistar rats, and suspended in 50 mM Tris-HCl buffer (pH 7.1) containing 120 mM sodium chloride, 5 mM potassium chloride, 2 mM calcium chloride, 1 mM magnesium chloride, 10 μM pargyline and 0.1% ascorbic acid for the experiment.
The test compound at several concentrations and tritiated spiperone (final concentration 0.2 nM) were added to the synaptosome suspension, and each mixture was incubated at 37° C. for 20 minutes. After the incubation, the mixture was filtered with suction through Whatman GF/B (trade mark) glass filter. The filter was washed with 50 mM Tris-HCl buffer (pH 7.7), and the radioactivity of the filter was measured by a liquid scintillation counter. Non-specific binding was determined in the presence of 10^-4 M (±)-sulpiride. The concentration necessary for 50% inhibition (IC50) was determined on a graph, and inhibition constant (Ki value) was calculated.

Data set [3] deals with T2, serotonin 2 (5-HT2) receptor (Rattus norvegicus, UniProt P14842).
T2 construct: A crude synaptosome fraction was separated from hippocampus; from tissue; host or cells: hippocampus of 9-10 week-old Wistar rats, crude synaptosome fraction
The data set can be described thus: Affinity for serotonin 2 receptor (tritiated ketanserin binding). As to conditions: rat hippocampus crude synaptosomes; [3H]ketanserin 0.2 nM; 37° C., 20 min. Details: species or system Wistar rats. How it is done:
Affinity for serotonin 2 receptor
A specific binding of serotonin 2 (5-HT2) receptor was tested according to the method described in Mol. Pharmacol. 21, 301 (1981).
A crude synaptosome fraction was separated from hippocampus of 9-10 week-old Wistar rats, and suspended in 50 mM Tris-HCl buffer (pH 7.7) for the experiment. The test compound at several concentration and tritiated ketanserin (final concentration 0.2 nM) were added to the synaptosome suspension, and each mixture was incubated at 37° C. for 20 minutes. After the incubation, the mixture was filtered with suction through Whatman GF/B (trade mark) glass filter. The filter was washed with 50 mM Tris-HCl buffer (pH 7.7), and the radioactivity of the filter was measured by a liquid scintillation counter. Non-specific binding was determined in the presence of 10^-5 M mianserin. The concentration necessary for 50% inhibition (IC50) was determined on a graph, and inhibition constant (Ki value ) was calculated.

Data set [4] addresses T3, serotonin 1A (5-HT1A) receptor (Rattus norvegicus, UniProt P19327).
T3 construct: A crude synaptosome fraction was separated from hippocampus; from tissue; host or cells: hippocampus of 9-10 week-old Wistar rats, crude synaptosome fraction
T3 sequence (P19327 1-422): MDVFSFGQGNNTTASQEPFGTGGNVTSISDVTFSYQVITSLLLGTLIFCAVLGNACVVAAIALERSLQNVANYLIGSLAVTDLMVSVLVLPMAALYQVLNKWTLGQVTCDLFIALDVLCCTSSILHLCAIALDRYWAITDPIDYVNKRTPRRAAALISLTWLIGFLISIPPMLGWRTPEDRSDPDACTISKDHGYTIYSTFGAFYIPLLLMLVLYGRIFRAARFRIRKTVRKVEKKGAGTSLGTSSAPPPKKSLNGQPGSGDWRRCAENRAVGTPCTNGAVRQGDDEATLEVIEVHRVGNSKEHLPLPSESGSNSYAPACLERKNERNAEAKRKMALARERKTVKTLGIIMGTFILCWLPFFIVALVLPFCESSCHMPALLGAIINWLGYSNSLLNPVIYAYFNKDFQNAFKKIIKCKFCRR
Nature of the data set: Affinity for serotonin 1A receptor (tritiated 8-OH-DPAT binding). Details: species or system Wistar rats. The note with it: rat hippocampus crude synaptosomes; [3H]8-OH-DPAT 0.2 nM; 37° C., 12 min. How it is done:
Affinity for serotonin 1A receptor
A specific binding of serotonin 1A (5-HT1A) receptor was tested according to the method described in J. Neurochem. 44, 1685 (1985).
A crude synaptosome fraction was separated from hippocampus of 9-10 week-old Wistar rats, and suspended in 50 mM Tris-HCl buffer (pH 7.4) containing 1 mM manganese chloride for the experiment. The test compound at several concentrations and tritiated 8-hydroxy-2-dipropyl-aminotetralin(8-OH-DPAT, final concentration 0.2 nM) were added to the synaptosome suspension, and each mixture was incubated at 37° C. for 12 minutes. After the incubation, the mixture was filtered with suction through Whatman GF/B (trade mark) glass filter. The filter was washed with 50 mM Tris-HCl buffer (pH 7.7), and the radioactivity of the filter was measured by a liquid scintillation counter. Non-specific binding was determined in the presence of 10^-5 M serotonin (5-HT). The concentration necessary for 50% inhibition (IC50) was determined on a graph, and inhibition constant (Ki value) was calculated.

For data set [5], the system named is apomorphine-induced hyperactivity. The data set can be described thus: Anti-apomorphine action (in mouse). The data set is classed as in vivo, male dd mice. As to conditions: oral, 60 min before 0.5 mg/kg s.c. apomorphine hydrochloride, movement lowered by 50%. How it is done: Anti-apomorphine action (in mouse)
Male dd mice at 3 per group were used for the experiment. The test compound was orally administered to the mice, and 60 minutes later, 0.5 mg/kg of apomorphine hydrochloride was subcutaneously administered. the movement for 20 minutes from immediately after the administration of apomorphine hydrochloride was measured using Valimex (Columbus, USA). Each group was tested four times, and the amount of the test compound necessary to lower the movement by 50% than that of a control group was calculated from a graph and taken as ED50.

The test system of data set [6] is ergometrine-induced head-twitches. Nature of the data set: Anti-ergometrine action (head-twitch). The data set is classed as in vivo, male ddY mice. As to conditions: Mus musculus; oral, 60 min before 20 mg/kg i.p. ergometrine maleate; head-twitch vanished, Probit. As for the experimental part: Male ddY mice at 12 per group were used for the experiment. The test compound was orally administered to the mice, and 60 minutes later, 20 mg/kg of ergometrine maleate was intraperitoneally administered. The amount of the test compound necessary to vanish the head-twitch reaction for 10 minutes from immediately after the administration of ergometrine maleate was calculated as ED50 value by Probit method.

A further data set in a line: Acute toxicity. As to conditions: mouse, in vivo; oral, male ddY mice, observed 5 days; read-out: LD50 (50% lethal dose). The text has this:
Male ddY mice weighing 20-28 g were used at 10 per group. They were orally administered with the compound of Example 24 and observed for 5 days after the administration.

In another data set the test system is D2. As to conditions: cited from earlier work.
In data set [7] the test system is negative symptoms, EPS, depression and internal secretion in patients. As to conditions: cited from earlier work.

T1 sequence (P61169 whole entry): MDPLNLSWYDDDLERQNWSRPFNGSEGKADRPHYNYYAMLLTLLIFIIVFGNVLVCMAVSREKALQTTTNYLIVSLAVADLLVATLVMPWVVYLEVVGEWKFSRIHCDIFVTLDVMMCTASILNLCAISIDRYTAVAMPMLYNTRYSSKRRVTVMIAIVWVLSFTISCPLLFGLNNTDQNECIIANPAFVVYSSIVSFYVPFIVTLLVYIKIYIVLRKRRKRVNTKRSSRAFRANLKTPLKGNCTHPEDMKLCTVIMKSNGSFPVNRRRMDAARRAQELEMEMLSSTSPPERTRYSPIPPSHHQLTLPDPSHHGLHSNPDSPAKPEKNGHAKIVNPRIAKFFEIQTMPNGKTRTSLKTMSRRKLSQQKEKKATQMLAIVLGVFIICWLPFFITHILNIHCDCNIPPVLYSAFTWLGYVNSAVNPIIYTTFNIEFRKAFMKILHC
T2 sequence (P14842 whole entry): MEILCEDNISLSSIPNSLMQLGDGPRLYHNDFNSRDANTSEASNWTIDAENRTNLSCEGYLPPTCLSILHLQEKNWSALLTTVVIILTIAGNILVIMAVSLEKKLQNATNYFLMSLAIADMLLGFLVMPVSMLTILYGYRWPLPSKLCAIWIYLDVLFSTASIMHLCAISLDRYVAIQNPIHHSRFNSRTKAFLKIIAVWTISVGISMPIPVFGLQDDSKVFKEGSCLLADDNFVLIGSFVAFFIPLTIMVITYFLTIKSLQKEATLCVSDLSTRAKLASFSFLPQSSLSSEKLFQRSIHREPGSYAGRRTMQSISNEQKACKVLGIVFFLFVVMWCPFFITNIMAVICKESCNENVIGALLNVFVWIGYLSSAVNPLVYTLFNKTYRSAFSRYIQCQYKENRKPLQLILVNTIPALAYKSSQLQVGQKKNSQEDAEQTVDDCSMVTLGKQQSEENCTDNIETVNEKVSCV

For the compound `CCCN(CCC)C1CCc2cccc(O)c2C1` (stereo not drawn) [8-OH DPAT, 8-hydroxy-2-dipropyl-aminotetralin], the “effect on catalepsy induced by haloperidol” value in data set [1] is reported as “reverse catalepsy induced by haloperidol”. The “inhibition of conditioned avoidance response (CAR)” value in data set [2] is on record as “inhibit conditioned avoidance response (CAR) more potent than that of D2 antagonist only”.

In the case of `CC(=O)N1CCc2c(sc(C)c2CCN2CCC(c3noc4cc(F)ccc34)CC2)C1` [Example 24, 6-acetyl-3-(2-(4-(6-fluoro-1,2-benzisoxazol-3-yl)piperidin-1-yl)ethyl)-4,5,6,7-tetrahydro-2-methylthieno[2,3-c]pyridine], the Ki came to 0.46 nM at dopamine 2 (D2) receptor, 0.062 nM in [3] and 32 nM in data set [4]. The values for the ED50 in data set [5] and in data set [6] were 0.39 mg/kg and 0.37 mg/kg, respectively. Moreover, in the data set “Acute toxicity”, the LD50 at 120 h came to 205 mg/kg.

For the compound `Cc1nc2n(c(=O)c1CCN1CCC(c3noc4cc(F)ccc34)CC1)CCCC2` [Risperidone], the “D2 receptor antagonistic properties” value in the data set on D2 is on record as “potent”. In addition, the “EPS / side-effects in clinical use” value in [7] is “low EPS liability”; in data set [7] (listed as risperidone) it was “EPS is appeared in high dose; also recorded: side-effect of internal secretion”. Besides, in data set [7], the “clinical effect on symptoms” value is given as “effective antipsychotic; also recorded: beneficial effects on the negative symptoms of schizophrenia”.
